# Data: US20100136034A1, “NOVEL MULTIMERIC MOLECULES, A PROCESS FOR PREPARING THE SAME AND THE USE THEREOF FOR MANUFACTURING MEDICINAL DRUGS” (CENTRE NATIONAL DE LA RECHERCHE SCIENTIFIQUE, priority 2007, published 2010)
# Non-standard residues stand in square brackets, D forms with d. No end group written: not given here. Ahx = NCCCCCC(=O)O
# What was measured:
# murine spleen B cells = assay: Spleen B cell proliferation ([3H]-thymidine uptake); assay type: cell-based, BALB/c mice; conditions: ligand alone, without anti-CD40 antibody 3/23; 72 hours; FIG. 5B
# Procedure: Spleens were surgically removed from BALB/c mice aged from 5 to 12 weeks. Spleen B cells were prepared by positive selection using magnetic beads coated with monoclonal anti-CD19 antibodies (MACS, Milteny biotech, Germany). This fraction contains over 95% of B220^+ cells. B cells (3×10^6/ml) were next cultured in RPMI 1640 medium supplemented with 10% complement depleted FBS, gentamycin (10 μg/ml), 25 mM HEPES and […] β-mercaptoethanol in presence of CD40L analogs. Cells were pulsed with 1 μCi/well of tritiated thymidine (ICN, Irvine, Calif.) for the last 20 hours of culturing and the uptake of [^3H]-thymidine as expressed in cpm was measured after 72 hours using a Matrix 9600 model direct 13 counter (Packard, Meriden, Conn.). Results (FIG. 5B) are expressed as a stimulation index corresponding to cpm obtained for cultures with CD40L analogs divided by cpm obtained for cultures without CD40L analogs. Mice used in this study were raised in our animal housing facilities which are licensed by the french veterinary administration under number D-67-482-2.
# [1] = test system: Burkitt's lymphoma RAJI cells; assay: Induction of apoptosis in Burkitt's lymphoma RAJI cells (drop in mitochondrial transmembrane potential, DiOC6(3), flow cytometry); assay type: cell-based; conditions: 16 hours incubation with CD40L analog, FIG. 5A
# Procedure: Burkitt's lymphoma (RAJI) was cultured in RPMI 1640 medium (Cambrex Bioscience, Verviers, Belgium) supplemented with 10% decomplemented foetal calf serum (FBS) and gentamycin (10 μg/ml). For assaying apoptosis, cells (1×10^6/ml) were incubated at 37° C. in 96-well plates, at the specified concentrations of CD40L analogs, in a final volume of 200 μl. After incubation for 16 hours, cell apoptosis was measured as described herein below.
# To this end, cells were pulsed with DiOC6(3) (Interchim, Montluçon, France)) at a final concentration of 40 nM for the last 45 minutes of culturing.
# Cells were subsequently washed, resuspended in 300 μl of PBS and analyzed by flow cytometry. Results (FIG. 5A) are expressed in percentage of specific apoptosis according the following formula: % of specific apoptosis=[(% of dead treated cells−% of dead control cells)×100]/(100−% de dead control cells).
# Cells were analyzed by a FACSCalibur® instrument. At least 25000 pulse is events were acquired for each experiment using the CellQuest 3.3 software (Becton Dickinson, Pont de Claix, France) and data were analyzed using the WinMDI 2.8 software (Joseph Trotter, Scripps Research Institute, http://facs.scripps.edu/software.html).
substance,measurement,setting,value
"L41: dimeric ligand by click chemistry: dimerized macrocycle IV.25 coupled to pentapeptide P1 (Lys-Gly-Tyr-Tyr-Ahx), deprotected (peptide KGYY[Ahx]; chain AKKKAK; also: dimerized macrocycle IV.25 (cyclised hexapeptide) joined by click chemistry (triazole) to pentapeptide P1 (Lys-Gly-Tyr-Tyr-Ahx), D-residues and non-natural residues not placed)","B cell proliferation (stimulation index, [3H]-thymidine uptake)",murine spleen B cells,induces alone murine spleen B cell proliferation
same,percentage of specific apoptosis,[1],induces a Burkitt lymphoma (RAJI) specific apoptosis percentage
